Measured values reported in patent publication US9284308B2, “Methylene linked quinolinyl modulators of RORγt” (Janssen Pharmaceutica NV, priority 2013, dated 2016).
Several values for one entry are separate records, joined by “and”; a condition that tells them apart may be missing. Identical values can stand only once. Counter-ions that a name gives are not always drawn.

Experiments:
[1] = system: IL-17 production by CD4 T cells; experiment: Human Th17 assay; type: cell-based; conditions: IL-17 production by human CD4 T cells
Experimental: The human Th17 assay tests the effect of RORγt modulatory compounds on IL-17 production by CD4 T cells under conditions which favor Th17 differentiation. Total CD4^+ T cells were isolated from the peripheral blood mononuclear cells (PBMC) of healthy donors using a CD4^+ T cell isolation kit II, following the manufacturer's instructions (Miltenyi Biotec). […] 50 μL of compound at titrated concentrations in DMSO were added into each well at final DMSO concentration at 0.2%. Cells were incubated for 1 hour, then 50 μL of Th17 cell differentiation medium was added to each well. The final concentrations of antibodies and cytokines (R&D Systems) in differentiation medium were: 3×10^6/mL anti-CD3/CD28 beads (prepared using human T cell activation/expansion kit, Miltenyi Biotec), 10 μg/mL anti-IL4, 10 μg/mL anti-IFNγ, 10 ng/mL IL1β, 10 ng/mL IL23, 50 ng/mL IL6, 3 ng/mL TGFβ and 20 U/mL IL2. Cells were cultured at 37° C. and 5% CO2 for 3 days. Supernatants were collected and the accumulated IL-17 in culture was measured by using MULTI-SPOT® Cytokine Plate following manufacture's instruction (Meso Scale Discovery). The plate was read using Sector Imager 6000, and IL-17 concentration was extrapolated from the standard curve. The IC50s were determined by GraphPad.

[2] = molecular target: T1, human RORγt LBD (Homo sapiens, UniProt P51449); experiment: RORγt (LBD) reporter assay in HEK293T cells; type: cell-based; conditions: for inhibition at 6 µM: HEK-293T, read-out: RORγt (LBD) Reporter Assay, % inhibition @ 6 μM, 6 μM compound; for RORγt (LBD) Reporter Assay, % inhibition @ 6 μM: 6 μM compound
T1 construct: expressed in transfected cells; host or cells: HEK293T
T1 sequence (P51449 258-518): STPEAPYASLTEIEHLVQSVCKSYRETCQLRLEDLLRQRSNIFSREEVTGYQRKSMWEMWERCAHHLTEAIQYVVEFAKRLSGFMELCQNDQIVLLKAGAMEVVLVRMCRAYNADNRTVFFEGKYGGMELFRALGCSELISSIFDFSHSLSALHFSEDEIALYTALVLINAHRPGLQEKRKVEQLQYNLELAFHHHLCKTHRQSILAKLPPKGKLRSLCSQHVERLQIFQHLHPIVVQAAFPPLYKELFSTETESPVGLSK
Description: RORγt (LBD) Reporter Assay
Cells used in the assay were co-transfected with two constructs. The first construct, pBIND-RORγt LBD, contained the wild type human RORγt LBD fused to the DNA binding domain of the GAL4 protein. The second construct, pGL4.31 (Promega Cat no. C935A), contained multiple GAL4 responsive DNA elements upstream of firefly luciferase. […] The mutant construct was called pBIND-RORγt-AF2.
The pBIND vector contains the GAL4 DNA Binding Domain (GAL4 DBD) and the renilla luciferase gene under control of the SV40 promoter. Renilla luciferase expression serves as a control for transfection efficiency and cell viability.
The reporter assay was performed by transiently transfecting HEK293T cells with 5 μg of pBIND-RORγt LBD or pBIND-RORγt LBD-AF2 and 5 μg pGL4.31 (Promega Cat no. C935A) using Fugene 6 (Invitrogen Cat no. E2691) at a 1:6 ratio of DNA:Fugene 6 in a T-75 flask in which cells were at least 80% confluent. Twenty four hours after bulk transfection, cells were plated into 96-well plates at 50,000 cells/well in phenol-red free DMEM containing 5% Lipid Reduced FCS and Pen/Strep. Six hours after plating, cells were treated with compounds for 24 hours. Media was removed and cells were lysed with 50 μL 1× Glo Lysis Buffer (Promega). Dual Glo Luciferase Reagent (50 μL/well) was then added and firefly luciferase luminescence was read on an Envision after a ten minute incubation. Finally, Stop and Glo reagent (50 μL/well) was added and renilla luciferase luminescence was read on an Envision after a ten minute incubation. […] Agonist compounds increase RORγt-driven luciferase expression, and antagonist or inverse agonist compounds decrease luciferase expression.

[3] = molecular target: T2, human RORγt ligand binding domain (RORγt LBD) (Homo sapiens, UniProt P51449); experiment: RORγt ThermoFluor assay (ligand binding affinity from protein thermal stability)
T2 construct: His-tag (N); TurboTEV protease cleavage site (ENLYFQG) (N); made in house; host or cells: E. coli (pHIS1, modified pET vector)
T2 sequence (P51449 with tags, fused parts or gaps): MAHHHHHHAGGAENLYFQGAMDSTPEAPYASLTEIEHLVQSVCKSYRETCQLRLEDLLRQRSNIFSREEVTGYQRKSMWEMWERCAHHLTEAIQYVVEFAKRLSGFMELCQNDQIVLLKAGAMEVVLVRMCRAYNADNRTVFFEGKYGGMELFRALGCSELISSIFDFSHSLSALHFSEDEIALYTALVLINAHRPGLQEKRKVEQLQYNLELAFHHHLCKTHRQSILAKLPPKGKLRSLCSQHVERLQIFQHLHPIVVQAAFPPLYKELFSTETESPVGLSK
Experimental: This approach is applicable to a wide variety of systems, and rigorous in theoretical interpretation through quantitation of equilibrium binding constants (KD).
The shift in the melting point described as a ΔTm is proportional to the concentration and affinity of the ligand.
RORγt ThermoFluor® Assay Construct
Protein and compound solutions are dispensed into black 384-well polypropylene PCR microplates (Abgene) and overlayed with silicone oil (1 μL, Fluka, type DC 200) to prevent evaporation.
Bar-coded assay plates are robotically loaded onto a thermostatically controlled PCR-type thermal block and then heated at a typical ramp-rate of 1° C./min for all experiments. Fluorescence was measured by continuous illumination with UV light (Hamamatsu LC6) supplied via fiber optic and filtered through a band-pass filter (380-400 nm; >6 OD cutoff). Fluorescence emission of the entire 384-well plate was detected by measuring light intensity using a CCD camera (Sensys, Roper Scientific) filtered to detect 500±25 nm, resulting in simultaneous and independent readings of all 384 wells. Images were collected at each temperature, and the sum of the pixel intensity in a given area of the assay plate was recorded versus temperature. Reference wells contained RORγt without compounds, and the assay conditions were as follows: • 0.065 mg/mL RORγt • 60 μM 1,8-ANS • 100 mM Hepes, pH 7.0 • 10 mM NaCl • 2.5 mM GSH • 0.002% Tween-20
Project compounds were arranged in a pre-dosed mother plate (Greiner Bio-one) wherein compounds are serially diluted in 100% DMSO by 1:2 from a high concentration of 10 mM over 12 columns within a series (column 12 is a reference well containing DMSO, no compound). The compounds were robotically dispensed directly into assay plates (1×=[…]) using a Hummingbird capillary liquid handling instrument (Digilab). Following compound dispense, protein and dye in buffer was added to achieve the final assay volume of 3 μL, followed by 1 μL of silicone oil.

Row | Structure (SMILES) | IC50 ([1]; Homo sapiens, CD4+ T) | IC50 [2] | Kd [3] | inhibition at 6 µM [2] | IC50 [1] | RORγt (LBD) Reporter Assay, % inhibition @ 6 μM [2]
1 | COc1nc2ccc(C(O)(c3cnc(C)n3C)c3cnc(C)n3C)cc2c(Cl)c1Cc1ccc(-n2cccn2)cc1 [Example 13, (3-(4-(1H-Pyrazol-1-yl)benzyl)-4-chloro-2-methoxyquinolin-6-yl)bis(1,2-dimethyl-1H-imidazol-5-yl)methanol] |  |  |  |  | 100 nM | 
2 | CCc1nc2ccc(C(O)(c3cnnn3C)c3cnc(C)n3C)cc2c(Cl)c1Cc1ccc(C(F)(F)F)cc1 (single isomer, unassigned) [Example 25b, (4-Chloro-2-ethyl-3-(4-(trifluoromethyl)benzyl)quinolin-6-yl)(1,2-dimethyl-1H-imidazol-5-yl)(1-methyl-1H-1,2,3-triazol-5-yl)methanol] | 2.1 nM |  |  |  |  | 
3 | COc1nc2ccc(C(O)(c3oc(C)nc3C)c3cnnn3C)cc2c(Cl)c1Cc1ccc(C(F)(F)F)cc1 (single isomer, unassigned) [Example 156c, (4-chloro-2-methoxy-3-(4-(trifluoromethyl)benzyl)quinolin-6-yl)(2,4-dimethyloxazol-5-yl)(1-methyl-1H-1,2,3-triazol-5-yl)methanol] |  | 1.9 nM | 0.59 nM |  |  | 99%
4 | COc1nc2ccc(C(N)(c3ccc(Cl)cc3)c3cncn3C)cc2c(Cl)c1Cc1ccc(-n2cccn2)cc1 (single isomer, unassigned) [Example 118c, (3-(4-(1H-Pyrazol-1-yl)benzyl)-4-chloro-2-methoxyquinolin-6-yl)(4-chlorophenyl)(1-methyl-1H-imidazol-5-yl)methanamine•TFA] |  |  |  |  | 50 nM | 
5 | COc1nc2ccc(C(O)(c3ccc(C(F)(F)F)cc3)c3cccnc3)cc2c(Cl)c1Cc1ccc(-n2cccn2)cc1 (single isomer, unassigned) [Example 162b] |  | 1100 nM | 16000 nM | 81% |  | 
6 | COc1nc2ccc(C(N)(c3ccc(C(F)(F)F)nc3)c3cncn3C)cc2c(Cl)c1Cc1ccccc1 (single isomer, unassigned) [Example 120c, (3-Benzyl-4-chloro-2-methoxyquinolin-6-yl)(1-methyl-1H-imidazol-5-yl)(6-(trifluoromethyl)pyridin-3-yl)methanamine•TFA] |  | ~6000 nM | 1100 nM |  |  | 

Now from value to compound, other results behind:

Row | IC50 ([1]; Homo sapiens, CD4+ T) | IC50 [2] | Kd [3] | inhibition at 6 µM [2] | Structure (SMILES) | IC50 [1] | RORγt (LBD) Reporter Assay, % inhibition @ 6 μM [2]
7 |  | > 6000 nM | 130 nM |  | COc1nc2ccc(C(N)(c3ccc(C(F)(F)F)nc3)c3cncn3C)cc2c(Cl)c1Cc1ccccc1 (single isomer, unassigned) [Example 120b, (3-Benzyl-4-chloro-2-methoxyquinolin-6-yl)(1-methyl-1H-imidazol-5-yl)(6-(trifluoromethyl)pyridin-3-yl)methanamine•TFA] |  | 
8 |  | 22 nM | 0.095 nM | 74% | COc1nc2ccc(C(O)(c3cnnn3C)c3cnc(C)n3C)cc2c(Cl)c1Cc1ccc(F)cc1 (single isomer, unassigned) [Example 65b] |  | 
9 |  | 1200 nM | 1100 nM | 86% | COc1nc2ccc(C(O)(c3ccc(Cl)cc3)c3cncn3C)cc2c(Cl)c1Cc1ccc(C(F)(F)F)nc1 (single isomer, unassigned) [Example 39b] |  | 
10 |  | 480 nM | 58 nM |  | CC(=O)N1CCC(C(O)(c2ccc3nc(C(F)(F)F)c(Cc4ccccc4)c(Cl)c3c2)c2cncn2C)CC1 (single isomer, unassigned) [Example 115b, 1-(4-((3-Benzyl-4-chloro-2-(trifluoromethyl)quinolin-6-yl)(hydroxy)(1-methyl-1H-imidazol-5-yl)methyl)piperidin-1-yl)ethanone•TFA] |  | 
11 |  | 65 nM | 53 nM | 101% | COc1nc2ccc(C(O)(c3ccccn3)c3cncn3C)cc2c(Cl)c1Cc1ccc(C(F)(F)F)cc1 (stereo not shown) [Example 68, (4-Chloro-2-methoxy-3-(4-(trifluoromethyl)benzyl)quinolin-6-yl)(1-methyl-1H-imidazol-5-yl)(pyridin-2-yl)methanol•TFA] |  | 
12 |  | 87 nM | 2.2 nM |  | COc1nc2ccc(C(c3ccc(C)nc3C)(c3cnnn3C)N(C)C)cc2c(Cl)c1Cc1ccc(C(F)(F)F)cc1 (single isomer, unassigned) [Example 122c, 1-(4-Chloro-2-methoxy-3-(4-(trifluoromethyl)benzyl)quinolin-6-yl)-1-(2,6-dimethylpyridin-3-yl)-N,N-dimethyl-1-(1-methyl-1H-1,2,3-triazol-5-yl)methanamine•TFA] |  | 
13 |  | 1400 nM | 120 nM |  | Cn1cncc1C(O)(c1ccc(C(F)(F)F)nc1)c1ccc2nc(-n3cccn3)c(Cc3ccccc3)c(C#N)c2c1 (single isomer, unassigned) [Example 114b, 3-Benzyl-6-(hydroxy(1-methyl-1H-imidazol-5-yl)(6-(trifluoromethyl)pyridin-3-yl)methyl)-2-(1H-pyrazol-1-yl)quinoline-4-carbonitrile•TFA] |  | 
14 |  | 38 nM and ~20 nM | 2.7 nM |  | COc1nc2ccc(C(O)(c3ccc(C)nc3C)c3cnnn3C)cc2c(C#N)c1Cc1ccc(F)cc1 (single isomer, unassigned) [Example 49c, 6-((2,6-Dimethylpyridin-3-yl)(hydroxy)(1-methyl-1H-1,2,3-triazol-5-yl)methyl)-3-(4-fluorobenzyl)-2-methoxyquinoline-4-carbonitrile] |  | 83%
15 |  | 430 nM | 120 nM | 94% | COc1nc2ccc(C(O)(c3ccc(Cl)cc3)c3cncn3C)cc2c(Cl)c1Cc1cccc(C#N)c1 (stereo not shown) [Example 70, 3-((4-Chloro-6-((4-chlorophenyl)(hydroxy)(1-methyl-1H-imidazol-5-yl)methyl)-2-methoxyquinolin-3-yl)methyl)benzonitrile•TFA] |  | 
